Experimental data taken from patent US20040072839A1, “1-Phenylalkylpiperazines” (priority 2002, published 2004).
Where two headings read alike, the source gives them in different places.

Key:
5-HT1A receptors = biological target: T1, 5-HT1A receptors (Rattus norvegicus, UniProt P19327); assay: Inhibition of stereotypy (rhythmic forepaw treading) induced by 8-OH-DPAT in rats (post-synaptic antagonism); format: in vivo; details: for % Inhibition of forepaw treading, 1 h / % Inhibition of forepaw treading, 4 h: 10 mg/kg p.o.; for % Inhibition of forepaw treading, 1 h: given 1 h before 8-OH-DPAT (1 mg/kg s.c.); for % Inhibition of forepaw treading, 4 h: given 4 h before 8-OH-DPAT (1 mg/kg s.c.)
T1 construct: stereotyped forepaw treading induced in rats by subcutaneous injection of 8-OH-DPAT; from tissue; host or cells: whole animal (male Sprague-Dawley rats), endogenous post-synaptic receptors
T1 sequence (P19327 1-422): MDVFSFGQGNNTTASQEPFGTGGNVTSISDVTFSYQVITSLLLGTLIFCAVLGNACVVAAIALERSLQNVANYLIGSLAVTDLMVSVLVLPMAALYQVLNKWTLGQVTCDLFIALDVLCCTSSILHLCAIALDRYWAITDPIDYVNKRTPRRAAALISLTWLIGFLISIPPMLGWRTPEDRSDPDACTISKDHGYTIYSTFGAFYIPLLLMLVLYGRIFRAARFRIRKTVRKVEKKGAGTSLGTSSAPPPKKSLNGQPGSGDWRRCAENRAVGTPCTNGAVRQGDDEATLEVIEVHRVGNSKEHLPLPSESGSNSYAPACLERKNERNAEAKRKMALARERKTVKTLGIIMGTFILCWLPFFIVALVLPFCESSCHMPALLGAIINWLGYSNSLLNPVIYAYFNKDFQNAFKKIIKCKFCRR
Protocol: The inhibitory effect of 5-HT1A-receptor antagonists on stereotyped forepaw treading induced in rats by subcutaneous injection of 8-OH-DPAT was evaluated by the method of Tricklebank (Tricklebank et al., Eur. J. Pharmacol., 117: 15, 1985) with minor modifications as described below.
Male Sprague-Dawley rats[Crl: CD® (SD) IGS BR] weighing 150-175 g from Charles River Italia were used. The animals were housed with free access to food and water and maintained on a forced 12-hour-light/12-hour-dark cycle at 22-24° C. of temperature. On the day of the experiment, the rats were placed singly in clear plastic containers, 10-15 minutes before administration of the vehicle or compounds to be tested. For evaluation of antagonistic activity after oral administration, the compounds were administered 1 and 4 hours before induction of stereotypy by 8-OH-DPAT (1 mg/kg subcutaneously). Observation sessions last 30 seconds and were begun 3 minutes after 8-OH-DPAT treatment and repeated every 3 minutes over a period of 15 minutes.
The appearance of the symptom induced by postsynaptic stimulation of 5-HT1A receptors was noted, and the intensity was scored using an intensity scale in which: 0=absent, 1=equivocal, 2=present and 3=intense. Behavioural scores for treated rats were accumulated throughout the observation time (5 observation periods) and expressed as mean values of 4 rats/dose. Change in mean values of treated animals in comparison with control (vehicle) group, expressed as per-cent inhibition, were used to quantify the antagonistic activity.

[1] = biological target: T2, human 5-HT1A-serotonergic receptor (Homo sapiens, UniProt P08908); assay: Radioligand binding to recombinant 5-HT1A receptors ([3H]8-OH-DPAT, HeLa cell membranes); details: 1 nM [3H]8-OH-DPAT; Ki from IC50 by Cheng & Prusoff; read-out: Ki, binding affinity for 5-HT1A receptors
T2 construct: expressed in transfected cells; host or cells: HeLa (human), stably transfected; membrane preparation
T2 sequence (P08908 1-422): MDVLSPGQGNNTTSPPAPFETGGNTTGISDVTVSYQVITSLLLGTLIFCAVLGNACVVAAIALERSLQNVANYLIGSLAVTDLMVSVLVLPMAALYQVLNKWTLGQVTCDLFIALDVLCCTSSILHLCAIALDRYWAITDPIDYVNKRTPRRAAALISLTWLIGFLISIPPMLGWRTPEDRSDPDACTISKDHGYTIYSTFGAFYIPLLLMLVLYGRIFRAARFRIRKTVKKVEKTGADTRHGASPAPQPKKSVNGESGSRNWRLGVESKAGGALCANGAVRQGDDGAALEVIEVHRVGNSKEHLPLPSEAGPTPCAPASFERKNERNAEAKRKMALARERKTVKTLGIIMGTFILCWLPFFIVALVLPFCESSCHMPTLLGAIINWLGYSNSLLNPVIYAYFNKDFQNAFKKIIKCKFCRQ
Protocol: Genomic clone coding for the human 5-HT1A-serotonergic receptor was stably transfected in a human cell line (HeLa). HeLa cells were grown as monolayers in Dulbecco's modified Eagle medium (DMEM), containing 10% foetal bovine serum, gentamycin (0.1 mg/ml) and 5% carbon dioxide, at 37° C. The cells were detached from the growth flask at 95% confluence by a cell scraper and were lysed in cold 5 mM Tris and 5 mM EDTA buffer (pH 7.4). The homogenates were centrifuged at 40000×g×20 minutes and the pellets were resuspended in a small volume of cold 5 mM Tris and 5 mM EDTA buffer (pH 7.4) and immediately frozen and stored at −70° C. until use. On the day of experiment, the cell membranes were resuspended in incubation buffer: 50 mM Tris HCl (pH 7.4), 2.5 mM MgCl2, […] (Fargin et al., Nature 335, 358-360, 1988). The membranes were incubated in a final volume of 1 ml for 30 minutes at 30° C. with 1 nM [^3H]8-OH-DPAT, in the absence or presence of the test compounds. Non-specific binding was determined in the presence of 10 μM 5-HT. Incubation was stopped by addition of cold Tris-HC1 buffer and rapid filtration through a 0.2%-polyethyleneimine-pretreated Whatman-GF/B or Schleicher-&-Schuell-GF52 filter.
The affinities of the tested compounds were evaluated as inhibition of specific binding of the radioligand to 5-HT1A receptors (IC50) by using the non-linear curve-fitting program Allfit (De Lean et al., Am. J. Physiol. 235, E97-E102 (1978). The IC50 value was converted to an affinity constant (Ki) by the equation of Cheng & Prusoff (Cheng Y. C., Prusoff W. H., Biochem. Pharmacol. 22, 3099-3108 (1973)).

[2] = test system: rhythmic bladder-voiding contractions in anaesthetised rats; assay: Rhythmic bladder-voiding contractions induced by bladder filling in anaesthetised rats; format: in vivo, rat; details: intravenous administration; for ED50: Rattus norvegicus
Protocol: Female Sprague-Dawley rats weighing 225-275 g (Crl: CD® (SD) IGS BR, Charles River Italia) were used. The animals were housed with free access to food and water and maintained on a forced 12-hour alternating light-dark cycle at 22-24° C. for at least one week, except during the experiment. The activity on rhythmic bladder voiding contractions was evaluated according to the method of Dray (Dray J., Pharmacol. Methods, 13:157, 1985), with some modifications as in Guarneri (Guarneri, Pharmacol. Res. 27:173, 1993). Briefly, rats were anaesthetised by subcutaneous injection of 1.25 g/kg (5 ml/kg) urethane, after which the urinary bladder was catheterised via the urethra using PE 50 polyethylene tubing filled with physiological saline. The catheter was tied in place with a ligature around the external urethral orifice and was connected to conventional pressure transducers (Statham P23 ID/P23 XL). […] The bladder was then filled via the recording catheter by incremental volumes of warm (37° C.) saline until reflex bladder-voiding contractions occurred (usually 0.8-1.5 ml). For intravenous injection of bioactive compounds, PE 50 polyethylene tubing filled with physiological saline was inserted into the jugular vein.
From the cystometrogram, the number of contractions recorded 15 minutes before (basal values) and after treatment, as well as the mean amplitude of these contractions (mean height of the peaks in mmHg), was evaluated.
Since most compounds produced an effect that was relatively rapid in onset and lead to a complete cessation of bladder contractions, bioactivity was conveniently estimated by measuring the duration of bladder quiescence (i.e., the length of the time during which no contractions occured). The number of tested animals showing a reduction in the number of contractions higher than 30% of that observed in the basal period was also recorded.
To compare the potency of the tested compounds for inhibiting the bladder voiding contractions, equieffective doses that result in the disappearance of contractions for a time of 10 minutes (ED10min) were computed by means of linear regression using the least square method. The extrapolated doses which induces a reduction in the number of contractions greater than 30% in 50% of the treated rats (ED50) was evaluated by the method of Bliss (Bliss C. I., Quart J. Pharm. Pharmacol. 11, 192-216, 1938).
Data represent the ED10min values (the extrapolated dose inducing 10 minutes of disappearance of the contractions), the ED50 (frequency) values (the extrapolated doses inducing a reduction of the number of contractions >30% in 50% of treated rats), and the ED50 (amplitude) values (the extrapolated doses inducing a 30% reduction of amplitude of the contractions in 50% of treated rats).

[3] = urethane-anaesthetised female rats, read-out: ED50 (frequency) (extrapolated dose inducing a reduction of the number of contractions >30% in 50% of treated rats)
[4] = urethane-anaesthetised female rats

SMILES | % Inhibition of forepaw treading, 1 h (5-HT1A receptors) [%] | % Inhibition of forepaw treading, 4 h (5-HT1A receptors) [%] | Ki [1] [nM] | ED50 [2, 3] [mg/kg] | ED10 min (extrapolated dose inducing 10 minutes of disappearance of the contractions) [2, 4] [mg/kg] | inhibition of stereotypy induced by 8-OH-DPAT (in words) (5-HT1A receptors; oral administration) | ED50 ([2]; n.a. = not active, no significant reduction of the height of the peaks, read-out: ED50 (amplitude) (extrapolated dose inducing a 30% reduction of amplitude of the contractions in 50% of treated rats)) [mg/kg]
CC#CC(O)C(CCN1CCN(c2cccc3c2OCCO3)CC1)c1ccccc1 (stereo not drawn) [Example 31, 1-[5-(2,3-Dihydro-1,4-benzodioxinyl)]-4-(4-hydroxy-3-phenylhept-5-ynyl)piperazine] | 60 | 18 | 2.71 | – | – | – | –
COc1ccccc1N1CCN(CC[C@H](c2ccccc2F)[C@@H](OC(C)=O)C2CCCCC2)CC1 (racemic) [Example 45, (RS,SR) 1-[4-Acetoxy-4-cyclohexyl-3-(2-fluorophenyl)butyl]-4-(2-methoxyphenyl)piperazine] | 100 | 81 | 0.54 | 0.127 | 0.584 | potent and long-lasting inhibition | –
COc1cc(F)ccc1N1CCN(CCC(c2ccccc2C#N)C(O)C2CCCCC2)CC1 (stereo not drawn) [Example 16, 1-[3-(2-Cyanophenyl)-4-cyclohexyl-4-hydroxybutyl]-4-(4-fluoro-2-methoxyphenyl)piperazine] | 40 | 17 | 0.9 | – | – | – | –
CN1CC[C@]23c4c5ccc(O)c4O[C@H]2[C@@H](O)C=C[C@H]3[C@H]1C5 [Morphine] | – | – | – | 0.03 | 0.05 | – | –
COc1ccccc1N1CCN(CC[C@H](c2ccccc2F)[C@@H](OC(N)=O)C2CCCCC2)CC1 (racemic) [Example 48, (RS,SR) 1-[4-Aminocarbonyloxy-4-cyclohexyl-3-(2-fluorophenyl)butyl]-4-(2-methoxyphenyl)piperazine] | 90 | 74 | 0.36 | – | – | – | –
CCNC(=O)O[C@@H](C1CCCCC1)[C@H](CCN1CCN(c2ccccc2OC)CC1)c1ccccc1F (racemic) [Example 47, (RS,SR) 1-[4-Cyclohexyl-4-ethylaminocarbonyloxy-3-(2-fluorophenyl)butyl]-4-(2-methoxyphenyl)piperazine] | 56 | 58 | 0.85 | – | – | – | –
C#CCOC(C1CCCCC1)C(CCN1CCN(c2ccc(F)cc2OC)CC1)c1ccccc1 (stereo not drawn) [Example 24, 1-(4-Cyclohexyl-3-phenyl-4-propargyloxybutyl)-4-(4-fluoro-2-methoxyphenyl)piperazine] | – | – | 0.64 | – | – | – | –
C=CCOC(C1CCCCC1)C(CCN1CCN(c2ccc(F)cc2OC)CC1)c1ccccc1 (stereo not drawn) [Example 22, 1-(4-Allyloxy-4-cyclohexyl-3-phenylbutyl)-4-(4-fluoro-2-methoxyphenyl)piperazine] | – | – | 2.03 | – | – | – | –
COC(C1CCCCC1)C(CCN1CCN(c2ccccc2OCC(F)(F)F)CC1)c1ccccc1F (stereo not drawn) [Example 1, 1-[4-Cyclohexyl-3-(2-fluorophenyl)-4-methoxybutyl]-4-[2-(2,2,2-trifluoroethoxy)phenyl]piperazine] | – | – | 1.45 | – | – | – | –
COc1cc(F)ccc1N1CCN(CCC(c2ccccc2)C(OC)C2CCCCC2)CC1 (stereo not drawn) [Example 18, 1-(4-Cyclohexyl-4-methoxy-3-phenylbutyl)-4-(4-fluoro-2-methoxyphenyl)piperazine] | – | – | 0.81 | – | – | – | –
CCN(CC)CC#CCOC(=O)C(O)(c1ccccc1)C1CCCCC1 (stereo not drawn) [Oxybutynin] | – | – | – | > 10 | 7.77 | – | 0.24
